The text below walks through data of patent publication US20250304567A1, “PYRROLIDIONE DERIVATIVES AS INHIBITORS OF NF KAPPA B INDUCING KINASE” (priority 2022, published 2025).

As usually defined, the IC50 is the concentration needed to halve the response being measured.

In experiment [1] the test system is p-IKKa levels in L363 (NIK translocated multiple myeloma) cells. As to the kind of experiment: Effect of compounds on p-IKKa levels in L363 (NIK translocated multiple myeloma) cells (AlphaLISA SureFire Ultra p-IKKa Ser176/180). The experiment is classed as cell-based, human. The following applies: Homo sapiens, L-363, p-IKKa levels in L363 cells; average if tested more than once; read-out: Assay 2 IC50. The method in brief: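 L363 multiple myeloma cells, BAFF-stimulated overnight (250 ng/ml), then 6 h at 37 °C with compound (11-point 1:3 series, 0.3% DMSO) plus BAFF and 10 μM MG132. p-IKKa Ser176/180 read by AlphaLISA SureFire Ultra; IC50 from sigmoidal fit normalised to stimulated and unstimulated controls.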

For experiment [2], the target named is Recombinant Human NF-kappaB-Inducing Kinase (NIK/MAP3K14) (Homo sapiens, UniProt Q99558). The experiment can be described thus: Inhibition of auto-phosphorylation of recombinant human NIK/MAP3K14 activity (AlphaScreen). It counts as biochemical. The following applies: 5 μM ATP, 1 nM NIK, average if tested more than once. The method in brief:
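GST-tagged NIK (1 nM) auto-phosphorylation with 5 μM ATP, 2 h at 25 °C, pH 7.5 Tris buffer, 0.7% DMSO; stopped with anti-phospho-IKK Ser176/180 antibody and read by AlphaScreen. Signal normalized to full-activity and no-enzyme/no-ATP controls; IC50 from sigmoidal fit of % inhibition vs log concentration.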
(In general: Alpha assays give light when donor and acceptor beads are brought close together.)

Recombinant Human NF-kappaB-Inducing Kinase (NIK/MAP3K14), sequence (Q99558 whole entry): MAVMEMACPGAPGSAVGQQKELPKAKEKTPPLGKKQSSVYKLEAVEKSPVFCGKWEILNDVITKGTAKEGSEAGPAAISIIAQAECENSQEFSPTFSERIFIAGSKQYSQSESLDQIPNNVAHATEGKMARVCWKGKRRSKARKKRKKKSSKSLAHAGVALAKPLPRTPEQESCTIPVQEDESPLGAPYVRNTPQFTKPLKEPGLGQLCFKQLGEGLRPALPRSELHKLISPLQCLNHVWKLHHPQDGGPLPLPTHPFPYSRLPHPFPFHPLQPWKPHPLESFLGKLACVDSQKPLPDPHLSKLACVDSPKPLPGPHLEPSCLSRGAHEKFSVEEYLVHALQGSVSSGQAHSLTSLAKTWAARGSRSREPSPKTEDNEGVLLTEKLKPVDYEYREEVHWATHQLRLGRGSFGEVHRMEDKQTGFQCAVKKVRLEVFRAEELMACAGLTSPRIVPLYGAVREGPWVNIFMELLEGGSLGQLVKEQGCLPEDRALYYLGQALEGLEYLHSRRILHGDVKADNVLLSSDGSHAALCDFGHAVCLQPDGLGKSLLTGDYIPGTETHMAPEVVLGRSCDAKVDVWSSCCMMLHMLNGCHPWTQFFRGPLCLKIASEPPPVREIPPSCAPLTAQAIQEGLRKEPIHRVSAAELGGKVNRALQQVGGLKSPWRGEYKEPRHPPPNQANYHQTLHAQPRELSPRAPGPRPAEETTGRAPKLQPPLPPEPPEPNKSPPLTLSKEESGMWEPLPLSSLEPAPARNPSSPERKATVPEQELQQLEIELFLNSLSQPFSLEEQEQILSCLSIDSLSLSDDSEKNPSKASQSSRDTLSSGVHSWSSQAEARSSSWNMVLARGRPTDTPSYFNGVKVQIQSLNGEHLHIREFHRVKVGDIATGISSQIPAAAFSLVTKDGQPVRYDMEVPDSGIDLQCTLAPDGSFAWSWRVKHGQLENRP

On to `CN1CC[C@@](O)(c2cccc(-c3nc(-c4ccnc(N[C@@H]5CNC(=O)C5)n4)cs3)c2)C1=O` [Example 171], for which the results for the concentration for half-maximal inhibition (IC50) in experiment [1] and in experiment [2] were more than 0.501 µM and less than 0.1 µM, respectively.

As for `CC(=O)N1CC(Nc2nccc(-c3csc(-c4cccc([C@]5(O)CCN(C)C5=O)c4)n3)n2)C1` [Example 172], the figures for the IC50 in experiment [1] and in experiment [2] were more than 0.501 µM and 0.1 to 0.5 µM, respectively.

In the case of `CN1CC[C@@](O)(c2cccc(-c3nc(-c4ccnc(NCCS(C)(=O)=O)n4)cs3)c2)C1=O` [Example 173], the IC50 in experiment [1] is more than 0.501 µM; in experiment [2], 0.1 to 0.5 µM.

With `CN1CC[C@@](O)(c2cccc(-c3nc(-c4ccnc(NCCCO)n4)cs3)c2)C1=O` [Example 174], the IC50 is more than 0.501 µM in experiment [1] and less than 0.1 µM in experiment [2].

As to `Cc1nnc(Nc2nccc(-c3csc(-c4cccc([C@]5(O)CCN(C)C5=O)c4)n3)n2)o1` [Example 175], the IC50 in experiment [1] was more than 0.501 µM; in experiment [2], 0.1 to 0.5 µM.

In the case of `CN1CC[C@@](O)(c2cccc(-c3nc(-c4ccnc(Nc5ccnn5C)n4)cs3)c2)C1=O` [Example 176], the 50% inhibitory concentration (IC50) in experiment [1] and in experiment [2] was less than 0.1 µM each time.

For the compound `CN1CC[C@@](O)(c2cccc(-c3nc(-c4ccnc(Nc5cnn(C)c5)n4)cs3)c2)C1=O` [Example 177], the IC50 in experiment [1] and in experiment [2] was less than 0.1 µM throughout.

With `Cc1c(Nc2nccc(-c3csc(-c4cccc([C@]5(O)CCN(C)C5=O)c4)n3)n2)ncn1C` [Example 178], the IC50 in experiment [1] and in experiment [2] was more than 0.501 µM throughout.

For `CN1CC[C@@](O)(c2cccc(-c3nc(-c4ccnc(Nc5cn6ccccc6n5)n4)cs3)c2)C1=O` [Example 179], the IC50 in experiment [1] and in experiment [2] was more than 0.501 µM each time.

As for `CN1CC[C@@](O)(c2cccc(-c3nc(-c4ccnc(N[C@H]5C[C@@H](O)C5)n4)cs3)c2)C1=O` [Example 180], the results for the IC50 in experiment [1] and in experiment [2] were more than 0.501 µM and 0.1 to 0.5 µM, respectively.

Turning to `CN1CC[C@@](O)(c2cccc(-c3nc(-c4ccnc(NC5CCOCC5)n4)cs3)c2)C1=O` [Example 181], the IC50 is more than 0.501 µM in experiment [1] and 0.1 to 0.5 µM in experiment [2].

With `CN1CC[C@@](O)(c2cccc(-c3nc(-c4ccnc(NCc5ccccn5)n4)cs3)c2)C1=O` [Example 182], the values for the IC50 in experiment [1] and in experiment [2] were more than 0.501 µM and 0.1 to 0.5 µM, respectively.

As to `CN1CC[C@@](O)(c2cccc(-c3nc(-c4ccnc(NCc5cnn(C)c5)n4)cs3)c2)C1=O` [Example 183], the values for the IC50 in experiment [1] and in experiment [2] were more than 0.501 µM and less than 0.1 µM, respectively.

On to `CN1CC[C@@](O)(c2cccc(-c3nc(-c4ccnc(NCc5ccn(C)n5)n4)cs3)c2)C1=O` [Example 184], for which the IC50 in experiment [1] was more than 0.501 µM; in experiment [2] it was less than 0.1 µM.

Regarding `C[C@@H](Nc1nccc(-c2csc(-c3cccc([C@]4(O)CCN(C)C4=O)c3)n2)n1)c1ccccn1` [Example 185], the results for the IC50 in experiment [1] and in experiment [2] were more than 0.501 µM and less than 0.1 µM, respectively.

`C[C@H](Nc1nccc(-c2csc(-c3cccc([C@]4(O)CCN(C)C4=O)c3)n2)n1)c1ccccn1` [Example 186]: the IC50 in experiment [1] is more than 0.501 µM; in experiment [2], 0.1 to 0.5 µM.

On to `CN1CC[C@@](O)(c2cccc(-c3nc(-c4ccnc(NCCc5cnn(C)c5)n4)cs3)c2)C1=O` [Example 187], for which the IC50 in experiment [1] is more than 0.501 µM; in experiment [2], less than 0.1 µM.

On to `CN1CC[C@@](O)(c2cccc(-c3nc(-c4ccnc(NC5CC6(CC(O)C6)C5)n4)cs3)c2)C1=O` (some centres unmarked) [Example 188], for which the IC50 is more than 0.501 µM in experiment [1] and 0.1 to 0.5 µM in experiment [2].

Turning to `CN1CC[C@@](O)(c2cccc(-c3nc(-c4ccnc(NCCc5ccccn5)n4)cs3)c2)C1=O` [Example 189], the IC50 in experiment [1] was more than 0.501 µM; in experiment [2], 0.1 to 0.5 µM.

As for `CN1CC[C@@](O)(c2cccc(-c3nc(-c4ccnc(NCC5CCO5)n4)cs3)c2)C1=O` (some centres unmarked) [Example 190], the concentration for half-maximal inhibition (IC50) in experiment [1] is more than 0.501 µM; in experiment [2], 0.1 to 0.5 µM.

For the compound `CN1CC[C@@](O)(c2cccc(-c3nc(-c4ccnc(NC5(CO)CCC5)n4)cs3)c2)C1=O` [Example 191], the IC50 in experiment [1] was more than 0.501 µM; in experiment [2], less than 0.1 µM.

For the compound `CN1CC[C@@](O)(c2cccc(-c3nc(-c4ccnc(NC[C@H]5CCOC5)n4)cs3)c2)C1=O` [Example 192], the results for the IC50 in experiment [1] and in experiment [2] were more than 0.501 µM and 0.1 to 0.5 µM, respectively.

For the compound `CN1CC[C@@](O)(c2cccc(-c3nc(-c4ccnc(NCc5cnccn5)n4)cs3)c2)C1=O` [Example 194], the IC50 in experiment [1] is more than 0.501 µM; in experiment [2], 0.1 to 0.5 µM.

As for `CN1CC[C@@](O)(c2cccc(-c3nc(-c4ccnc(NCc5cn(C)cn5)n4)cs3)c2)C1=O` [Example 196], the IC50 in experiment [1] is more than 0.501 µM; in experiment [2] it was 0.1 to 0.5 µM.

Turning to `CN1CC[C@@](O)(c2cccc(-c3nc(-c4ccnc(NCc5ccnn5C)n4)cs3)c2)C1=O` [Example 197], the results for the IC50 in experiment [1] and in experiment [2] were more than 0.501 µM and less than 0.1 µM, respectively.

`CN1CC[C@@](O)(c2cccc(-c3nc(-c4ccnc(NCCn5cccn5)n4)cs3)c2)C1=O` [Example 198]: the values for the 50% inhibitory concentration (IC50) in experiment [1] and in experiment [2] were more than 0.501 µM and 0.1 to 0.5 µM, respectively.

For the compound `CC(Nc1nccc(-c2csc(-c3cccc([C@]4(O)CCN(C)C4=O)c3)n2)n1)c1ncco1` (some centres unmarked) [Example 199], the IC50 in experiment [1] is more than 0.501 µM; in experiment [2], less than 0.1 µM.

Turning to `Cc1cnc(CNc2nccc(-c3csc(-c4cccc([C@]5(O)CCN(C)C5=O)c4)n3)n2)o1` [Example 200], the values for the IC50 in experiment [1] and in experiment [2] were more than 0.501 µM and less than 0.1 µM, respectively.

In the case of `CN1CCC(Nc2nccc(-c3csc(-c4cccc([C@]5(O)CCN(C)C5=O)c4)n3)n2)C1=O` (some centres unmarked) [Example 201], the IC50 in experiment [1] and in experiment [2] was more than 0.501 µM throughout.

As to `Cc1cc(CNc2nccc(-c3csc(-c4cccc([C@]5(O)CCN(C)C5=O)c4)n3)n2)ccn1` [Example 202], the figures for the IC50 in experiment [1] and in experiment [2] were more than 0.501 µM and less than 0.1 µM, respectively.

In the case of `Cc1ccc(CNc2nccc(-c3csc(-c4cccc([C@]5(O)CCN(C)C5=O)c4)n3)n2)nc1` [Example 203], the IC50 in experiment [1] is more than 0.501 µM; in experiment [2], less than 0.1 µM.

Consider `Cc1ccc(CNc2nccc(-c3csc(-c4cccc([C@]5(O)CCN(C)C5=O)c4)n3)n2)cn1` [Example 204], for which the results for the IC50 in experiment [1] and in experiment [2] were more than 0.501 µM and less than 0.1 µM, respectively.

On to `Cc1cccc(CNc2nccc(-c3csc(-c4cccc([C@]5(O)CCN(C)C5=O)c4)n3)n2)n1` [Example 205], for which the half-maximal inhibitory concentration (IC50) in experiment [1] was more than 0.501 µM; in experiment [2] it was less than 0.1 µM.

Regarding `Cc1cccnc1CNc1nccc(-c2csc(-c3cccc([C@]4(O)CCN(C)C4=O)c3)n2)n1` [Example 206], the values for the IC50 in experiment [1] and in experiment [2] were more than 0.501 µM and less than 0.1 µM, respectively.

For the compound `CC(Nc1nccc(-c2csc(-c3cccc([C@]4(O)CCN(C)C4=O)c3)n2)n1)c1ncccn1` (some centres unmarked) [Example 207], the 50% inhibitory concentration (IC50) was more than 0.501 µM in experiment [1] and less than 0.1 µM in experiment [2].

As for `Cc1cnc(CNc2nccc(-c3csc(-c4cccc([C@]5(O)CCN(C)C5=O)c4)n3)n2)nc1` [Example 208], the IC50 in experiment [1] and in experiment [2] was more than 0.501 µM each time.

`Cc1cc(CNc2nccc(-c3csc(-c4cccc([C@]5(O)CCN(C)C5=O)c4)n3)n2)nn1C` [Example 209]: the IC50 in experiment [1] is more than 0.501 µM; in experiment [2], less than 0.1 µM.

With `Cc1nn(C)cc1CNc1nccc(-c2csc(-c3cccc([C@]4(O)CCN(C)C4=O)c3)n2)n1` [Example 210], the results for the IC50 in experiment [1] and in experiment [2] were more than 0.501 µM and less than 0.1 µM, respectively.

Take `CN1CC[C@@](O)(c2cccc(-c3nc(-c4ccnc(NCCc5cn(C)cn5)n4)cs3)c2)C1=O` [Example 211]: the IC50 in experiment [1] and in experiment [2] was more than 0.501 µM each time.

As for `CC(=O)N1CC[C@@H](Nc2nccc(-c3csc(-c4cccc([C@]5(O)CCN(C)C5=O)c4)n3)n2)C1` [Example 212], the results for the concentration for half-maximal inhibition (IC50) in experiment [1] and in experiment [2] were more than 0.501 µM and less than 0.1 µM, respectively.

For `CN1CCO[C@@H](CNc2nccc(-c3csc(-c4cccc([C@]5(O)CCN(C)C5=O)c4)n3)n2)C1` [Example 213], the IC50 in experiment [1] and in experiment [2] was more than 0.501 µM in each case.

For the compound `CN1CC[C@@](O)(c2cccc(-c3nc(-c4ccnc(N[C@@H]5[C@@H]6COC[C@@H]65)n4)cs3)c2)C1=O` [Example 214], the IC50 in experiment [1] was more than 0.501 µM; in experiment [2] it was 0.1 to 0.5 µM.

As for `CO[C@H]1C[C@H](Nc2nccc(-c3csc(-c4cccc([C@]5(O)CCN(C)C5=O)c4)n3)n2)C1` [Example 215], the values for the half-inhibitory concentration (IC50) in experiment [1] and in experiment [2] were more than 0.501 µM and less than 0.1 µM, respectively.

As to `CN1CC[C@@](O)(c2cccc(-c3nc(-c4ccnc(N[C@@H]5CCC[C@H]5O)n4)cs3)c2)C1=O` [Example 216], the IC50 in experiment [1] is more than 0.501 µM; in experiment [2], 0.1 to 0.5 µM.

Turning to `CN1CC[C@@](O)(c2cccc(-c3nc(-c4ccnc(NCc5ccncn5)n4)cs3)c2)C1=O` [Example 217], the IC50 was more than 0.501 µM in experiment [1] and 0.1 to 0.5 µM in experiment [2].

On to `CN1CC[C@@](O)(c2cccc(-c3nc(-c4ccnc(NCc5ncccn5)n4)cs3)c2)C1=O` [Example 218], for which the concentration for half-maximal inhibition (IC50) is more than 0.501 µM in experiment [1] and 0.1 to 0.5 µM in experiment [2].

Take `Cc1ncccc1CNc1nccc(-c2csc(-c3cccc([C@]4(O)CCN(C)C4=O)c3)n2)n1` [Example 219]: the IC50 in experiment [1] was more than 0.501 µM; in experiment [2] it was less than 0.1 µM.

Turning to `CN1CC[C@@](O)(c2cccc(-c3nc(-c4ccnc(NC5CC6CC(O)C5C6)n4)cs3)c2)C1=O` (some centres unmarked) [Example 220], the IC50 is more than 0.501 µM in experiment [1] and 0.1 to 0.5 µM in experiment [2].

For `CC(=O)N1CC[C@H](Nc2nccc(-c3csc(-c4cccc([C@]5(O)CCN(C)C5=O)c4)n3)n2)C1` [Example 221], the IC50 in experiment [1] is more than 0.501 µM; in experiment [2], 0.1 to 0.5 µM.
